Results taken from patent US7775469B2, “Purposeful movement of human migratory cells away from an agent source” (The General Hospital Corporation, priority 1999, dated 2010).

How the values were obtained:
[1] = tested on: T-cell subpopulations moving toward or away from SDF-1α; assay: Inhibitor pretreatment of T-cells in SDF-1α transwell transmigration assay; format: cell-based, human; settings: cells pretreated with inhibitor; for effect on chemotaxis to SDF-1α: peak chemotaxis at 100 ng/ml SDF-1α; for effect on fugetaxis from SDF-1α: peak fugetaxis at 1 or 10 μg/ml SDF-1α
Description: (§1) Three chemotaxis assays were used in this study. First, quantitative chemotaxis transmigration assays were performed using a transwell system (Corning Inc., NY) (6.5 mm diameter, 5 μm pore size, polycarbonate membrane) as previously described^13. Purified T-cell and thymocyte subpopulations (5×10^4 cells) were added to the upper chamber of each well in a total volume of 150 μl of IMDM alone. […] Cells were pretreated with pertussis toxin (PTX) 100 ng/ml for 1 hour, genistein (1 μg/ml for 20 minutes), herbimycin (1 μM for 20 minutes) or wortmannin (1 μM for 20 minutes) (Sigma Chemical Company, St Louis, Mo.) in a tissue culture incubator at 37° C. and 5% CO2 prior to their addition to the upper chambers of the transwells in selected experiments.
(§2) Transwells prepared in this way were incubated for 3 hours at 37° C., 5% CO2 incubator. Cells were harvested from the lower chamber after 3 hours and cell counts, immunophenotype and CXCR-4 chemokine receptor expression determined.
(§3) Cells were pretreated with anti-CXCR-4 (Pharmingen, San Diego, Calif.) at 20 μg/ml for 30 minutes at room temperature, pertussis toxin (PTX) (100 ng/ml for 1 hour at 37° C.), genistein (1 μg/ml for 20 minutes at 37° C.), herbimycin ([…] for 20 minutes 37° C.), wortmannin (1 μM for 20 minutes at 37° C.), 8-Br-cAMP (100 μM for 15 minutes at room temperature) or 8-Br-cGMP (100 μM for 15 minutes at room temperature) (Sigma Chemical Company, St Louis, Mo.) prior to their addition to the upper chambers of the transwells in selected experiments. Transwells prepared in this way were incubated for 3 hours at 37° C./5% C02 incubator. Cells were harvested from the lower chamber after 3 hours and cell counts performed using a hemocytometer.

CD8+CD45RA+ T-cells = assay: Transwell transmigration assay with recombinant HIV-1IIIB gp120 and inhibitors; format: cell-based, human; settings: cells pretreated with inhibitor
Description: Purified T-cell and thymocyte subpopulations (5×10^4 cells) were added to the upper chamber of each well in a total volume of 150 μl of IMDM alone.
as §3

Jurkat T-cells = assay: Transwell transmigration of Jurkat T-cells to HepG2CM fractions, with inhibitors; format: cell-based, human; settings: Jurkat cells pretreated, 100 μM for 15 minutes
Description: The HepG2 cell line (derived from a human hepatocarcinoma-ATCC no:HB-8065, ATCC, Manassas, Va.) was grown to confluency in MEM+10% heat inactivated fetal calf serum+penicillin/streptomycin+L-glutamine. Confluent HepG2 cells were then transferred into serum free medium for 48 hours and the serum free conditioned medium (HepG2CM) was harvested from these cultures. HepG2CM was filtered through a 0.4 μm filter prior to use in transmigration assays or in the Fugetaxin separation system detailed below.
200 ml of HepG2CM were loaded onto a 5-ml HiTrap heparin column (Pharmacia) equilibrated with 10 mM Na phosphate, pH 7. The column was eluted with step increasing concentration of NaCl. […] A cation exchange column, HiTrap Sp Sepharose (Pharmacia), was used as a second step of purification. The active fraction from the Heparin column was dialysized against 50 mM MES, pH6.4 and loaded onto a 1-ml HiTrap Sp column equilibrated with 50 mM MES, pH6.4. The column was then eluted with a linear gradient of NaCl concentration. • 3. […] The active fraction eluted from the HiTrap Sp column in the previous step was then dialysized with 20 mM Tris, pH8.0 and further fractionated using a MonoQ HR5/5 column (Pharmacia). The column was then eluted with a linear gradient of NaCl concentration.
We examined the biology of the fugetactic activity of Fraction 18 with in vitro and in vivo transmigration assay systems. […]

[2] = tested on: adult peripheral blood T-cell subpopulations; assay: Transwell transmigration assay with SDF-1α, adult peripheral blood T-cells; format: cell-based, human; settings: for T-cells transmigrating in response to a positive gradient of SDF-1α: SDF-1α 100 ng/ml
From the text: Peripheral blood was obtained from 12 healthy donors (age 25-40 years, median age 31). Peripheral blood mononuclear cells (PBMC) were obtained from peripheral blood using Ficoll-Hypaque. PBMC were stained with anti-CD4 (PE), anti-CD8 (PE), anti-CD45RA (FITC), anti-CD45RO (FITC) (Becton-Dickinson, San Jose, Calif.). The CD4^+CD45RA^+, CD4^+CD45RO^+ and CD8^+CD45RA^+ or CD8^+CD45RO^+ subpopulations of peripheral blood cells were sorted using a FACS vantage sorter (Becton-Dickinson, San Jose, Calif.). […] Sorted adult peripheral blood T-cell subpopulations were cultured overnight in serum-free Iscoves modified medium (GIBCO BRL, Gaithersburg, Md.), prior to their use in chemotaxis assays.
as §1, §2

[3] = tested on: adult peripheral blood T-cell subpopulations; assay: Semi-quantitative transmigration assay with tissue culture insert as SDF-1α reservoir; format: cell-based, human
Description: The second semi-quantitative transmigration assay involved the use of a tissue culture insert (6.5 mm diameter, 0.45 μm pore size, polycarbonate membrane) (Millipore, Bedford Mass.). Adult peripheral blood T-cell subpopulations (1×10^5 cells) were plated into the wells of a 12-well tissue-culture dish in serum-free Iscove's medium. The tissue-culture plate was then incubated at 37° C. for 1 hour to allow the cells to settle evenly over the base of the well. […] The tissue culture insert was gently placed in the center of the well of the 12-well tissue-culture plate leaving a gap of 0.3 cm between the edge of the insert and the edge of the well of the tissue culture plate. The well with transwell insert was incubated for up to 18 hours at 37° C. on the heated stage of a microscope and viewed by time lapse videomicroscopy recording at 120 frames per hour or by Polaroid still photography. Maintenance of a gradient was assessed by loading of methylene blue into the insert and observing a preserved gradient of color over the incubation period.

[4] = tested on: peripheral T-cell subpopulations; assay: Semi-quantitative migration assay in methylcellulose, time lapse videomicroscopy; format: cell-based, human; settings: SDF-1α loaded at fixed position, 10 μg/ml or 100 ng/ml
Description: In the third semi-quantitative migration assay, T-cell subpopulations (1×10^5 cells) were mixed with 0.5 ml of 0.5% methylcellulose (Stem Cell Technologies, Vancouver, BC) in sterile medium and plated in a 24 well plate.
[…]
To further validate the process of concentration dependent directional movement, a third transmigration assay was used. […] The movement of a gradient across the methylcellulose was documented in independent experiments by monitoring a dye front through the culture; a process not achieving equilibrium over the duration of our incubations.

[5] = tested on: TN, DP and SP subpopulations of fetal thymocytes; assay: Transwell transmigration of fetal thymocytes to SDF-1α; format: cell-based, human
From the text: (§4) Human fetal thymi and peripheral blood samples were obtained from 16 to 22 week abortuses according to Institutional Review Board approved guidelines. Thymi were physically disaggregated and mononuclear cell suspensions generated. Thymocytes were stained with CD8 (FITC), CD3 (PE) and CD4 (APC) and sorted into purified subpopulations of triple negative immature thymocytes (TN) (CD3^−, CD4^−, CD8^−) and mature double positive (DP) (CD4^+CD8^+) and single positive (SP) thymocytes (CD3^+CD4^+ or CD3^+CD8^+) by cell sorting. Fetal blood mononuclear cells (FBMC) were prepared from fetal blood using Ficoll-Hypaque as above. FBMC were labeled with CD8 (FITC), CD3 (PE), CD4 (APC) and anti-CD45RA (FITC). Purified populations of CD4^+CD45RA^+ and CD8^+CD45RA^+ T-cells were sorted cultured overnight in serum free Iscoves modified medium prior to use in chemotaxis assays.
(§5) Three chemotaxis assays were used in this study. First, quantitative chemotaxis transmigration assays were performed using a transwell system (Corning Inc., NY) (6.5 mm diameter, 5 μm pore size, polycarbonate membrane) as previously described^13. […]
as §2

[6] = tested on: CD4+CD45RA+ and CD8+CD45RA+ fetal blood T-cells; assay: Transwell transmigration of fetal blood T-cells to SDF-1α; format: cell-based, human
From the text: as §4, §5, §2

C57/B6 mice = assay: T-cell infiltration into the site of a secondary immune response (Ova challenge, peritoneal lavage) after SDF-1; format: in vivo, mouse; settings: 24 hours
Description: C57/B6 mice (Jackson Laboratories, ME) were obtained and primed subcutaneously with 100 μg chicken ovalbumin (Sigma) containing less than 0.01% LPS by the limulus assay and dissolved in 100 μl of Complete Freund's Adjuvant (CFA) (Sigma). Three days ova-primed mice were challenged by intraperitoneal (IP) injection with 100 μg of ovalbumin (Ova) dissolved in 250 μl of ddH20. […] These mice were then euthanized 24 hours following the second IP injection and peritoneal lavage with 5 mls of PBS performed with direct visualization of the peritoneal sac and its contents in order to avoid peripheral blood contamination. Peritoneal fluid cells harvested in this way contained <0.1% red blood cells. Three groups of control mice were used. In the first, C57/B6 mice were euthanized prior to Ova-priming and a peritoneal lavage performed. The second group of control mice were primed subcutaneously and challenged with Ova intraperitoneally as above and then euthanized 24 hours later. […]
Cells harvested from the peritoneal fluid were counted with a hemocytometer and their viability determined by Trypan blue exclusion and the total viable nucleated cell count per ml of peritoneal fluid was determined. […] The proportion of T-cells of each subpopulation (CD3^+, CD3^+CD4^+, CD3^+CD8^+) was determined as a percentage of the total nucleated cell fraction in the peritoneal fluid. […]

[7] = tested on: adult peripheral blood T-cell subpopulations; settings: reported in the literature; cited from earlier work
[8] = tested on: human T-cell subpopulations; assay: Transmigration of human T-cells to KSHV-infected cell supernatants and chemokines; format: cell-based
From the text: We examined the chemotactic and fugetactic responses of human T-cell subpopulations and KSHV specific CTL clones to the KSHV proteins vMIP-I and vMIP-II and serum free supernatants from two cell-lines well known in the art that are chronically infected by KSHV and derived from human tumors, lines BCBL-1 and VG-1. BCBL-1 is a B cell line derived from a body cavity-based B lymphoma that is latently infected with HHV-8/KSHV; no EBV DNA is present in this line (Renne, R., W. et al., Nat. Med., 1996, 2:342-346).
FIG. 7: Transmigration of human T-cells to supernatants derived from cell lines which are chronically infected with KSHV (FIG. 7A: BCBL-1, and FIG. 7B:VG-1).
Fugetactic (black bars) and chemotactic (striped bars) migratory responses are shown.

Nc1ncnc2c1nc(Br)n2[C@@H]1O[C@@H]2COP(=O)(O)O[C@H]2[C@H]1O [8-Br-cAMP]
effect on chemotaxis to SDF-1α [1]: not chemotaxis
effect on fugetaxis from SDF-1α [1]: inhibited fugetaxis
effect on movement away from HIV-1IIIB gp120 (CD8+CD45RA+ T-cells): differentially sensitive to inhibition
inhibition of fugetaxis induced by Fraction 18 (Jurkat T-cells): 95%

CO[C@H]1[C@@H](OC)C[C@H](C)[C@@H](OC)C2=CC(=O)C=C(NC(=O)/C(C)=C/C=C\[C@H](OC)[C@@H](OC(N)=O)/C(C)=C/[C@@H]1C)C2=O [herbimycin]
effect on chemotaxis to SDF-1α [1]: inhibited chemotaxis
effect on fugetaxis from SDF-1α [1]: minimal effect on fugetaxis

SDF-1α
concentration of maximal fugetaxis ([2]; CD4+CD45RA+ cells): 10 µg/mL
T-cells transmigrating in response to a positive gradient of SDF-1α ([2]; CD4+CD45RA+ cells): 85%
T-cells transmigrating in response to a positive gradient of SDF-1α ([2]; CD4+CD45RO+ cells): 79%
T-cells transmigrating in response to a positive gradient of SDF-1α ([2]; CD8+CD45RA+ cells): 97%
T-cells transmigrating in response to a positive gradient of SDF-1α ([2]; CD8+CD45RO+ cells): 51%
concentration of maximal fugetaxis ([2]; CD8+CD45RO+, CD8+CD45RA+ and CD4+CD45RO+ cells): 1 µg/mL
concentration of peak chemoattractant activities ([2]; all four adult T-cell subpopulations): 100 ng/mL
decline of chemotaxis toward SDF-1α ([2]; concentration increased from 100 ng/ml to 10 μg/ml, all cells): ≤ 27 fold
concentration at which agent acts as potent fugetactic agent to immune cells ([2]; mature T cells): higher than 200 ng/ml
direction of T-cell migration relative to insert ([3]; insert contained 10 μg/ml SDF-1α): migrate towards the source of SDF-1α and a second population to migrate away
direction of T-cell migration relative to insert ([3]; insert contained SDF-1α at 100 ng/ml): Only movement toward the insert was seen
direction of T-cell movement in methylcellulose [4]: away from high concentrations of SDF-1α and towards low concentrations
cell movement in response to SDF-1α ([5]; TN, DP, SP fetal thymocytes and fetal blood T-cells): minimal cell movement in response to SDF-1α except in the most immature TN subset
fugetaxis above background chemokinesis ([5]; thymocyte subpopulations, even at 1 μg/ml and 10 μg/ml): In no thymocyte subpopulation was fugetaxis noted above background chemokinesis levels
concentration of maximal chemotactic responses [6]: 100 ng/mL
T cell accumulation at site of Ova challenge (C57/B6 mice; SDF-1 low dose (100 ng/ml) IP, vs sham or PBS): No significant differences
T cell infiltration at site of Ova challenge (C57/B6 mice; high dose SDF-1 (5 μg/ml) IP, p=0.02 vs controls): blunted significantly below that of controls
concentration at which reported as lymphocyte chemoattractant [7]: lower than 100 ng/ml

Nc1nc2c(nc(Br)n2[C@@H]2O[C@@H]3COP(=O)(O)O[C@H]3[C@H]2O)c(=O)[nH]1 [8-Br-cGMP]
inhibition of fugetaxis induced by Fraction 18 (Jurkat T-cells): did not significantly inhibit fugetaxis

O=c1c(-c2ccc(O)cc2)coc2cc(O)cc(O)c12 [genistein]
effect on chemotaxis to SDF-1α [1]: inhibited chemotaxis
effect on fugetaxis from SDF-1α [1]: minimal effect on fugetaxis

B1: vMIP-II: KSHV-encoded human chemokine homologue (protein, UniProt Q98157 21-94, looked up)
Viral macrophage inflammatory …: GDTLGASWHRPDKCCLGYQKRPLPQVLLSSWYPTSQLCSKPGVIFLTKRGRQVCADKSKDWVKKLMQQLPVTAR
fugetactic response of T-cells ([8]; 100 ng/ml): not

B2: MIP-1α: human chemokine (protein, UniProt P10147 24-92, looked up)
C-C motif chemokine 3: SLAADTPTACCFSYTSRQIPQNFIADYFETSSQCSKPGVIFLTKRSRQVCADPSEEWVQKYVSDLELSA
chemotactic response of T-cell subsets ([8]; 10 ng/ml): clear chemotactic response
